Data taken from patent US6326401A, “Formulation for the oromucosal, in particular pernasal, route” (Immunotech, priority 1998, dated 2001).
Where two headings read alike, the source gives them in different places.

Assays:
[1] = Bioavailability test: serum IS 159 after nasal administration of the solution and control solution of example 1 (Example 4); type: in vivo, man; details: for AUC at 4 h / Tmax: human, serum; for AUC at 4 h: observation period 4 hours; for Tmax: read-out: apparent Tmax (converted)
[2] = Comparison between aqueous nasal solution and sublingual formulation (Example 8); type: in vivo, healthy volunteer subjects; details: human, serum, 10 mg; for AUC(0-inf): read-out: AUC from time 0 to infinity
Protocol: (§1) The serum concentrations of IS 159 as a function of time were measured on healthy volunteer subjects.

[3] = Compared bioavailability of sublingual formulations without and with Labrasol (Example 7); type: in vivo, healthy volunteer subjects; details: 10 mg, sublingual tablet; for AUC at 6 h / Tmax: human, serum; for AUC at 6 h: observation period 6 hours; for Tmax: read-out: apparent Tmax (converted)
Protocol: The serum concentrations of IS 159 as a function of time were measured on healthy volunteer subjects. These subjects received an identical amount of active substance IS 159 (10 mg) in the form of tablets in the absence or presence of Labrasol® (2%) by sublingual administration.

[4] = Compared bioavailability of aqueous nasal solution/aqueous subcutaneous solution (Example 9); type: in vivo, healthy volunteer subjects; details: 4 mg; for Tmax / half-life: human, serum; for half-life: read-out: Terminal half-life (converted)
Protocol: as §1

[5] = Dose/effect and reproducibility of bioavailability, nasal 4 mg and 7 mg (Example 6); type: in vivo, human subjects; details: with Labrasol
Protocol: The black squares represent the dose of 4 mg and the white squares represent the dose of 7 mg.

[6] = Reproducibility of bioavailability of the aqueous nasal solution plus Labrasol (Example 5); type: in vivo, human subjects; details: 100 μl (4 mg), with Labrasol, 8 subjects
[7] = control solution without Labrasol

With `NCCc1c[nH]c2ccc(OCC(=O)NC(Cc3ccc(O)cc3)C(=O)NCC(N)=O)cc12` (centres unmarked) [IS 159, tryptamine 5-O-carboxymethyl-tyrosyl-glycinamide] the AUC at 4 h [1, 7] was 0.012 µg·h/mL, the Tmax [1, 7] was 30 min and the AUC at 4 h ([1]; with Labrasol) was 0.085 µg·h/mL. The Tmax ([1]; with Labrasol) was 10 to 15 min, the “absorption (Cmax)” value ([1]; with Labrasol vs control solution) was “increases the absorption (Cmax)” and the AUC(0-inf) ([2]; nasal solution with Labrasol) was 0.166 µg·h/mL. It also gave an AUC(0-inf) ([2]; sublingual tablet with 2% Labrasol) of 0.012 µg·h/mL, a half-life ([2]; nasal and sublingual with Labrasol, read-out: terminal half-life (converted)) of roughly 150 min and an AUC at 6 h ([3]; control (2% lactose)) of 0.00042 µg·h/mL. It also gave a Tmax ([3]; control without Labrasol) of 45 min, an AUC at 6 h ([3]; with 2% Labrasol) of 0.00972 µg·h/mL and a Tmax ([3]; with 2% Labrasol) of 35 min. For the same compound, the “absorption (Cmax)” value ([3]; with 2% Labrasol vs control) was “increases the absorption (Cmax)”, the Tmax ([4]; sc, mean s.c.) was 30 min and the half-life ([4]; sc, mean s.c.) was 150 min. For the same compound, the Tmax ([4]; mean nasal, with Labrasol) was 15 min, the half-life ([4]; mean nasal, with Labrasol) was 150 min and the AUC/dose ([4]; mean nasal, with Labrasol) was 14 (h.ng/ml)(mg dose IS 159). The Cmax/dose ([4]; mean nasal, with Labrasol) was 0.011 µg/mL, the AUC/dose ([4]; mean s.c.) was 36 (h.ng/ml)(mg dose IS 159) and the Cmax/dose ([4]; mean s.c.) was 0.02 µg/mL. The “AUC/dose, ratio Nasal/s.c.” value ([4]; nasal (with Labrasol) / s.c.) was 39%, the “Cmax/dose, ratio Nasal/s.c.” value ([4]; nasal (with Labrasol) / s.c.) was 55% and the “Tmax, Nasal/s.c.” value ([4]; nasal (with Labrasol) vs s.c.) was “reduced”. For the same compound, the bioavailability ([4]; nasal solution with Labrasol, compared with subcutaneous) was “significant and faster than by the subcutaneous route”, the “terminal half-life, change” value ([4]; nasal vs subcutaneous) was “not changed significantly” and the “intra-individual and interindividual reproducibility of the pharmacokinetic parameters” value [5] was “good”. For the same compound, the “ratios of the AUCs and the maximum concentrations” value [5] was “constant and high” and the “interindividual and intraindividual reproducibilities of the pharmacokinetic parameters” value [6] was “good”.
